Source: patent US20210338846A1, “COMPETITIVE PROSTATE-SPECIFIC MEMBRANE ANTIGEN (PSMA) BINDING AGENTS FOR REDUCTION OF NON-TARGET ORGAN UPTAKE OF RADIOLABELED PSMA INHIBITORS FOR PSMA POSITIVE TUMOR IMAGING AND RADIOPHARMACEUTICAL THERAPY” (The Johns Hopkins University, priority 2018, published 2021)

System: PSMA+ PC-3 PiP and PSMA− PC-3 flu tumors
Experiment: Biodistribution of [177Lu]VK-I-45 without and with co-injection of competing inhibitor [Lu]VK-I-45
Type: in vivo, mice
Conditions: self blocking; only a modest reduction in PSMA+PiP tumor uptake
Text: VK-01-45 and its Lu-177 complex was reported in international PCT patent application publication no. WO 2017/165473 A, to Ray et al., which is incorporated herein by reference in its entirety. […] This approach can be applied to all compounds in WO 2017/165473 A1, to Ray et al.

In the case of `O=C([O-])CN1CCN(CC(=O)[O-])CCN(CC(=O)NCCCCC(=O)N(CCCC[C@H](NC(=O)N[C@@H](CCC(=O)O)C(=O)O)C(=O)O)Cc2ccc(Br)cc2)CCN(CC(=O)[O-])CC1.[Lu+3]` [[Lu]VK-01-45], the “effect of competing inhibitor on two-hour kidney uptake and retention of [177Lu]VK-01-45” value is reported as “can be reduced”.
